Literature values as cited in publication PMC9329312, “Decoding kinase-adverse event associations for small molecule kinase inhibitors” (Nature Communications, 2022).

Conditions: ref FAERS

Compound: CCOc1cc2ncc(C#N)c(Nc3ccc(OCc4ccccn4)c(Cl)c3)c2cc1NC(=O)/C=C/CN(C)C [neratinib]
- Abdominal discomfort, % of Cases: 4.8%
- Abdominal distension, % of Cases: 3.4%
- Abdominal neoplasm, % of Cases: 0.075%
- Abdominal pain lower, % of Cases: 0.075%
- Abdominal pain upper, % of Cases: 6.0%
- Abdominal pain, % of Cases: 6.2%
- Abdominal tenderness, % of Cases: 0.15%
- Abnormal faeces, % of Cases: 0.15%
- Abscess, % of Cases: 0.15%
- Accidental overdose, % of Cases: 0.15%
- Acne, % of Cases: 1.5%
- Acute kidney injury, % of Cases: 0.6%
- Acute respiratory failure, % of Cases: 0.075%
- Adrenal mass, % of Cases: 0.075%
- Adrenocortical insufficiency acute, % of Cases: 0.075%
- Adverse drug reaction, % of Cases: 2.6%
- Adverse event, % of Cases: 0.075%
- Ageusia, % of Cases: 0.225%
- Alanine aminotransferase increased, % of Cases: 0.6%
- Alopecia, % of Cases: 0.5%
- Amenorrhoea, % of Cases: 0.075%
- Amnesia, % of Cases: 0.15%
- Anaemia, % of Cases: 0.6%
- Anal cancer metastatic, % of Cases: 0.075%
- Anal fissure, % of Cases: 0.075%
- Anal incontinence, % of Cases: 0.075%
- Anal inflammation, % of Cases: 0.075%
- Anger, % of Cases: 0.075%
- Animal bite, % of Cases: 0.075%
- Animal scratch, % of Cases: 0.075%
- Anxiety, % of Cases: 0.9%
- Aphasia, % of Cases: 0.075%
- Aphonia, % of Cases: 0.225%
- Aphthous ulcer, % of Cases: 0.075%
- Aplastic anaemia, % of Cases: 0.075%
- Appendicitis perforated, % of Cases: 0.075%
- Appendicitis, % of Cases: 0.15%
- Appetite disorder, % of Cases: 0.15%
- Arthralgia, % of Cases: 2.4%
- Arthritis, % of Cases: 0.375%
- Ascites, % of Cases: 0.225%
- Aspartate aminotransferase increased, % of Cases: 0.3%
- Aspergillus infection, % of Cases: 0.075%
- Asthenia, % of Cases: 4.1%
- Asthenopia, % of Cases: 0.075%
- Asthma, % of Cases: 0.15%
- Astigmatism, % of Cases: 0.075%
- Atrial fibrillation, % of Cases: 0.075%
- Back pain, % of Cases: 0.9%
- Bacterial infection, % of Cases: 0.075%
- Balance disorder, % of Cases: 0.225%
- Biliary cirrhosis, % of Cases: 0.075%
- Bladder dilatation, % of Cases: 0.075%
- Bladder spasm, % of Cases: 0.225%
- Blister, % of Cases: 0.15%
- Blood alkaline phosphatase increased, % of Cases: 0.15%
- Blood bilirubin increased, % of Cases: 0.15%
- Blood calcium decreased, % of Cases: 0.075%
- Blood creatinine abnormal, % of Cases: 0.075%
- Blood creatinine increased, % of Cases: 0.8%
- Blood electrolytes decreased, % of Cases: 0.15%
- Blood glucose decreased, % of Cases: 0.225%
- Blood glucose fluctuation, % of Cases: 0.075%
- Blood glucose increased, % of Cases: 0.075%
- Blood iron decreased, % of Cases: 0.225%
- Blood magnesium decreased, % of Cases: 0.3%
- Blood potassium decreased, % of Cases: 1.7%
- Blood pressure abnormal, % of Cases: 0.075%
- Blood pressure decreased, % of Cases: 0.225%
- Blood pressure increased, % of Cases: 0.6%
- Blood sodium decreased, % of Cases: 0.15%
- Blood urea increased, % of Cases: 0.3%
- Blood urea nitrogen/creatinine ratio increased, % of Cases: 0.075%
- Blood urine present, % of Cases: 0.15%
- Bone cancer, % of Cases: 0.075%
- Bone pain, % of Cases: 0.75%
- Bowel movement irregularity, % of Cases: 0.075%
- Brain cancer metastatic, % of Cases: 0.15%
- Brain natriuretic peptide increased, % of Cases: 0.075%
- Brain neoplasm malignant, % of Cases: 0.075%
- Brain neoplasm, % of Cases: 0.3%
- Brain oedema, % of Cases: 0.075%
- Brain operation, % of Cases: 0.15%
- Breast calcifications, % of Cases: 0.075%
- Breast cancer metastatic, % of Cases: 2.3%
- Breast cancer stage IV, % of Cases: 0.45%
- Breast cancer, % of Cases: 0.15%
- Breast cellulitis, % of Cases: 0.15%
- Breast disorder, % of Cases: 0.075%
- Breast haemorrhage, % of Cases: 0.075%
- Breast pain, % of Cases: 0.15%
- Breast reconstruction, % of Cases: 0.375%
- Breast swelling, % of Cases: 0.075%
- Brief resolved unexplained event, % of Cases: 0.075%
- Bronchitis, % of Cases: 0.075%
- Bundle branch block left, % of Cases: 0.075%
- Burning sensation, % of Cases: 0.3%
- COVID-19, % of Cases: 0.15%
- Cachexia, % of Cases: 0.075%
- Cancer pain, % of Cases: 0.075%
- Candida infection, % of Cases: 0.15%
- Carbohydrate antigen 15-3 increased, % of Cases: 0.075%
- Cardiac disorder, % of Cases: 0.075%
- Cardiac failure congestive, % of Cases: 0.225%
- Cardiac operation, % of Cases: 0.075%
- Cardio-respiratory arrest, % of Cases: 0.075%
- Catatonia, % of Cases: 0.075%
- Cellulitis staphylococcal, % of Cases: 0.075%
- Cellulitis, % of Cases: 0.15%
- Central nervous system haemorrhage, % of Cases: 0.075%
- Central venous catheter removal, % of Cases: 0.075%
- Central venous catheterisation, % of Cases: 0.075%
- Cerebral cyst, % of Cases: 0.075%
- Cerebrovascular accident, % of Cases: 0.3%
- Chapped lips, % of Cases: 0.075%
- Chest discomfort, % of Cases: 0.15%
- Chest pain, % of Cases: 0.6%
- Chest wall tumour, % of Cases: 0.075%
- Chills, % of Cases: 0.5%
- Cholangiocarcinoma, % of Cases: 0.075%
- Cholecystectomy, % of Cases: 0.075%
- Cholecystitis, % of Cases: 0.075%
- Cholelithiasis, % of Cases: 0.15%
- Chromaturia, % of Cases: 0.15%
- Chronic fatigue syndrome, % of Cases: 0.075%
- Chronic hepatic failure, % of Cases: 0.075%
- Clostridium difficile colitis, % of Cases: 0.075%
- Clostridium difficile infection, % of Cases: 0.225%
- Coagulopathy, % of Cases: 0.075%
- Cognitive disorder, % of Cases: 0.15%
- Colectomy, % of Cases: 0.075%
- Colitis ulcerative, % of Cases: 0.075%
- Colitis, % of Cases: 0.3%
- Colon cancer, % of Cases: 0.15%
- Coma, % of Cases: 0.075%
- Completed suicide, % of Cases: 0.075%
- Condition aggravated, % of Cases: 0.075%
- Confusional state, % of Cases: 0.8%
- Conjunctivitis, % of Cases: 0.075%
- Constipation, % of Cases: 15.5%
- Contusion, % of Cases: 0.225%
- Cough, % of Cases: 1.4%
- Critical illness, % of Cases: 0.075%
- Cyst, % of Cases: 0.075%
- Cystitis, % of Cases: 0.375%
- Deafness bilateral, % of Cases: 0.075%
- Death, % of Cases: 9.6%
- Decreased appetite, % of Cases: 11.9%
- Deep vein thrombosis, % of Cases: 0.075%
- Dehydration, % of Cases: 6.6%
- Dementia, % of Cases: 0.075%
- Dental operation, % of Cases: 0.075%
- Depressed mood, % of Cases: 0.3%
- Depression, % of Cases: 0.75%
- Dermatitis acneiform, % of Cases: 0.6%
- Dermatitis contact, % of Cases: 0.075%
- Device related infection, % of Cases: 0.225%
- Diabetic ketoacidosis, % of Cases: 0.075%
- Diarrhoea haemorrhagic, % of Cases: 0.225%
- Diarrhoea, % of Cases: 61.8%
- Diplegia, % of Cases: 0.075%
- Diplopia, % of Cases: 0.075%
- Discomfort, % of Cases: 0.075%
- Disease progression, % of Cases: 1.7%
- Disorientation, % of Cases: 0.075%
- Disturbance in attention, % of Cases: 0.075%
- Diverticulitis, % of Cases: 0.225%
- Dizziness, % of Cases: 4.6%
- Drug eruption, % of Cases: 0.075%
- Drug hypersensitivity, % of Cases: 0.075%
- Drug ineffective, % of Cases: 0.45%
- Drug interaction, % of Cases: 0.075%
- Drug intolerance, % of Cases: 1.0%
